Reference: patent publication US20250195511A1, “INDAZOLE DERIVATIVES USEFUL AS INHIBITORS OF NOD-LIKE RECEPTOR PROTEIN 3” (Merck Sharp & Dohme LLC, priority 2023, published 2025)

tested on: NLRP3 inflammasome; assay: NLRP3 inflammasome activation: ASC-SPECK formation in gramicidin-stimulated THP-1 cells; format: cell-based; conditions: Homo sapiens, THP-1, inhibition of ASC SPECK formation; PMA-treated human monocytic THP-1 cells, compound 1 h before 12.5 μg/ml gramicidin, 3-hour treatment
Source text: Activation of the canonical NLRP3 inflammasome requires two steps, priming and activation. A priming signal such as a pathogen activated molecular patterns (PAMPs) or danger-activated molecular patterns (DAMPs) are recognized by Toll-like receptors leads to nuclear factor kappa B (NF-KB)-mediated signaling. […] The second step is activation which induces oligomerization of NLRP3 and subsequent assembly of NLRP3, apoptosis-associated speck-like protein containing a CARD (ASC), and procaspase-1 into an inflammasome complex. This triggers the transformation of procaspase-1 to caspase-1, and the production and secretion of mature IL-1β and IL-18 (Kim et al., J. Inflamm. 2015, 12, 41; Ozaki et al., J. Inflamm. Res. 2015, 8, 15-27; Rabeony et al., Eur. J. Immunol. 2015, 45, 2847). During inflammasome complex assembly, the oligomerization of NLRP3 triggers the nucleation of ASC and an event commonly referred to as “ASC SPECK” formation, as it is identified in the cell as a discrete puncta within the cell after staining and visualization of ASC using common immunocytochemical methods.
The ability of compounds to inhibit NLRP3 inflammasome activation was determined in vitro by monitoring formation of the ASC-SPECK in human monocytic THP-1 cells after stimulation. THP-1 cells (ATCC catalog #TIB-202) were maintained in complete growth media containing Roswell Park Memorial Institute RPMI (ATCC catalog #30-2001), 10% heat inactivated fetal bovine serum, 1× penicillin/streptomycin and 0.05 mM 2-mercaptoethanol. At the start of the assay, undifferentiated THP-1 cells were plated at a density of 20,000 cells per well in a 384-well plate (Poly-D-lysine coated Cell Carrier Ultra microplate, Perkin Elmer catalog #6057500) in complete growth media supplemented with 10 ng/ml phorbol 12-myristate 13-acetate (PMA; Sigma catalog #P8139), and then incubated overnight. The next day, media was replaced with assay media (RPMI (Gibco catalog #11875-093), 0.01% bovine serum albumin (BSA)). Compounds were serially diluted in DMSO and then added to wells one hour prior to the addition of 12.5 μg/ml Gramicidin (Enzo Lifescience, catalog #ALX-350-233-M005). All incubations were carried out at 37° C. (5% CO2/95% air). Following a 3-hour treatment with gramicidin, cells are fixed with 4% paraformaldehyde and stored at 4° C. until immunofluorescence staining.
Immunofluorescence staining: Anti-ASC antibody (MBL catalog #D086-3) was desalted and labeled with Alexa 488 antibody labeling kit (Thermo catalog #A20181) prior to use as described below. After fixation, the following steps were carried out at rt. Cells were first permeabilized with 0.3% polyethylene glycol tert-octylphenyl ether (Triton X-100) in phosphate-buffered saline (PBS) for 15 minutes and then incubated in blocking buffer containing 5% goat serum, 0.3% polyethylene glycol sorbitan monolaurate (Tween-20) and 0.03% sodium azide in PBS for 1 hour. Cells were stained with a mixture of ASC-Alexa 488 antibody (diluted 1:200 in blocking buffer) and nuclear stain DRAQ5 (1:5000 in blocking buffer, Thermo catalog #62251) in blocking buffer for 1 hour. Following a wash with 0.3% polyethylene glycol sorbitan monolaurate (Tween-20) in PBS, plates were imaged with an Opera Phenix High Content Screening System. The number of DRAQ5 positive cells containing ASC SPECKS were quantified in each well.
Data analysis: EC50 values were calculated by standard curve-fitting analysis using an internally developed program in TIBCO Spotfire software.

First: Cc1cc(C(F)(F)F)cc(O)c1-c1cnc2cn([C@]34CCC[C@H]3OCC4)nc2n1 (mixture of isomers) [Example 21, 2-(2-((3aS,6aR and 3aR,6aS)-hexahydro-3aH-cyclopenta[b]furan-3a-yl)-2H-pyrazolo[3,4-b]pyrazin-6-yl)-3-methyl-5-(trifluoromethyl)phenol]
Second: Cc1cc(C(F)(F)F)cc(O)c1-c1cnc2cn(C3CCCOC34CCC4)nc2n1 (racemic) [Example 22, (S and R)-2-(2-(5-oxaspiro[3.5]nonan-9-yl)-2H-pyrazolo[3,4-b]pyrazin-6-yl)-3-methyl-5-(trifluoromethyl)phenol]
The EC50 of the first is 4-fold higher: 814 nM for the first, 202 nM for the second. The second is the more potent here.

First: Cc1cc(C(F)(F)F)cc(O)c1-c1cnc2cn(C3COC4(C)CC3C4)nc2n1 (racemic) [Example 19, (R and S)-3-methyl-2-(2-(1-methyl-2-oxabicyclo[3.1.1]heptan-4-yl)-2H-pyrazolo[3,4-b]pyrazin-6-yl)-5-(trifluoromethyl)phenol]
Second: Cc1cc(C(F)(F)F)cc(O)c1-c1cnc2cn(C3COC4CC3C4)nc2n1 (racemic) [Example 25, (S and R)-2-(2-(2-oxabicyclo[3.1.1]heptan-4-yl)-2H-pyrazolo[3,4-b]pyrazin-6-yl)-3-methyl-5-(trifluoromethyl)phenol]
The EC50 of the first is 3.4-fold higher: 876 nM for the first, 261 nM for the second.

Compared with Cc1cc(C(F)(F)F)cc(O)c1-c1cnc2cn([C@@H]3CC[C@H](C#N)C3)nc2n1 (racemic) [Example 20, (1S,3R and 1R,3S)-3-(6-(2-hydroxy-6-methyl-4-(trifluoromethyl)phenyl)-2H-pyrazolo[3,4-b]pyrazin-2-yl)cyclopentane-1-carbonitrile], Cc1cc(C(F)(F)F)cc(O)c1-c1cnc2cn(C3CC34CCOCC4)nc2n1 (racemic) [Example 23, (S and R)-2-(2-(6-oxaspiro[2.5]octan-1-yl)-2H-pyrazolo[3,4-b]pyrazin-6-yl)-3-methyl-5-(trifluoromethyl)phenol] is 2.5-fold higher in EC50: 186 nM for the first, 461 nM for the second.

Compared with Cc1cc(C(F)(F)F)cc(O)c1-c1cnc2cn(C34CC(C)(C3)OC4C)nc2n1 (racemic) [Example 24, (S and R)-2-(2-(1,3-dimethyl-2-oxabicyclo[2.1.1]hexan-4-yl)-2H-pyrazolo[3,4-b]pyrazin-6-yl)-3-methyl-5-(trifluoromethyl)phenol], COc1ccc(CN2CC(n3nc4nc(-c5c(C)cc(C(F)(F)F)cc5O)cnc4c3C)CCC2=O)cc1 (racemic) [Example 107, (R and S)-5-(6-(2-hydroxy-6-methyl-4-(trifluoromethyl)phenyl)-3-methyl-2H-pyrazolo[3,4-b]pyrazin-2-yl)-1-(4-methoxybenzyl)piperidin-2-one] is 1.5-fold lower in EC50: 427 nM for the first, 279 nM for the second. The second is the more potent here.

same assay, conditions: inhibition of ASC SPECK formation; PMA-treated human monocytic THP-1 cells, compound 1 h before 12.5 μg/ml gramicidin, 3-hour treatment

Cc1cc(C(F)(F)F)cc(O)c1-c1cnc2cn([C@@H]3C[C@@H]4C[C@H]3CO4)nc2n1 (single isomer, unassigned) [Example 3, 2-(2-((1S,4R,5R or 1R,4S,5S)-2-oxabicyclo[2.2.1]heptan-5-yl)-2H-pyrazolo[3,4-b]pyrazin-6-yl)-3-methyl-5-(trifluoromethyl)phenol] and Cc1cc(C(F)(F)F)cc(O)c1-c1cnc2cn([C@H]3C[C@H]4C[C@@H]3CO4)nc2n1 (single isomer, unassigned) [Example 4, 2-(2-((1R,4S,5S or 1S,4R,5R)-2-oxabicyclo[2.2.1]heptan-5-yl)-2H-pyrazolo[3,4-b]pyrazin-6-yl)-3-methyl-5-(trifluoromethyl)phenol] are within 1.5-fold of each other in EC50: 35 nM for the first, 34 nM for the second.

Work on Cc1cc(C(F)(F)F)cc(O)c1-c1cnc2cn(C3C4CS(=O)(=O)CC43)nc2n1 (single isomer, unassigned) [Example 53, (1R,5S,6S or 1R,5S,6R)-6-(6-(2-hydroxy-6-methyl-4-(trifluoromethyl)phenyl)-2H-pyrazolo[3,4-b]pyrazin-2-yl)-3-thiabicyclo[3.1.0]hexane 3,3-dioxide] yielded an EC50 of 981 nM.
